{"source": "paper PMC7066107", "about": "(Investigational New Drugs, 2019)", "key": {"[1]": {"test_system": "Japanese patients with advanced solid tumours", "method": "The study consisted of two stages (Fig. 1).\nRecruitment of patients to each dose level was sequential using the standard 3 + 3 study design. […] At each dose level, treatment was continued until disease progression, DLT or other adverse event (AE) that would hinder the patient’s participation in the study, or until the patient requested discontinuation from the study.\nSafety, pharmacokinetics, efficacy, exploratory pharmacodynamics and genetic outcomes were assessed in this study. The safety outcomes were the incidence, type, severity and time of onset of DLTs, AEs and treatment-related AEs (TRAEs). […] In addition, the maximum tolerated dose (MTD) was determined on the basis of DLTs.\n(§1) Safety endpoints were analysed in the safety population, which consisted of patients who received ≥1 dose of the study drug. Efficacy endpoints were analysed in the full analysis set, which consisted of patients who received ≥1 dose of the study drug and underwent ≥1 post-baseline efficacy assessment. A summary of AEs, TRAEs and DLTs by mapped term, appropriate thesaurus level and severity was provided for each cohort. Summary statistics, including mean, standard deviation, coefficient of variation, median, and minimum and maximum, were calculated for pharmacokinetic and pharmacodynamic parameters.\nAdverse events that could be considered dose-limiting toxicities\nGrade 4 neutropenia persisting for ≥5 days or requiring treatment with G-CSF\nGrade 4 thrombocytopenia or grade 3 thrombocytopenia requiring platelet transfusion\nGrade ≥3 non-hematologic toxicity (excluding transient electrolyte abnormalities) Abnormal\ntoxicity will be assessed as DLTs only if they meet the following criteria. Grade ≥3 laboratory\nALP: A grade ≥3 increase persisting for ≥3 days will be assessed as a DLT.\nDiarrhoea, nausea, vomiting, skin toxicity: A grade ≥3 event persisting for ≥1 week"}, "IDO1": {"test_system": "IDO1", "settings": "following oral administration; cited from earlier work"}, "[2]": {"test_system": "patients with advanced or recurrent solid tumours", "settings": "cited from earlier work"}, "[3]": {"assay": "Plasma pharmacokinetics of navoximod in phase I study", "settings": "for Dose proportionality of AUC and Cmax: 200-1000 mg", "method": "The efficacy outcomes were the response rate, disease control rate, progression-free survival (PFS) and duration of response. Efficacy outcomes were assessed using the Response Evaluation Criteria in Solid Tumours (RECIST) version 1.1. Plasma concentrations of kynurenine and tryptophan and their ratios and the presence of UGT1A1*6 and UGT1A1*28 polymorphisms were the exploratory outcomes of this study.\nas §1\nSchedule for blood sampling for pharmacokinetic assessments\nVisit pharmacokinetics kynurenine/tryptophan\n(time window) pharmacodynamics (time\nCycle 0 Day 1 5 min before dosing (−30 min) 5 min before dosing (−30 min)\n30 min after dosing (±5 min) 30 min after dosing (±5 min)\n1 hr after dosing (±5 min) 1 hr after dosing (±5 min)\n2 hr after dosing (±5 min) 2 hr after dosing (±5 min)\n4 hr after dosing (±10 min) 4 hr after dosing (±10 min)\n6 hr after dosing (±30 min) 6 hr after dosing (±30 min)\n8 hr after dosing (±30 min) 8 hr after dosing (±30 min)\n12 hr after dosing (±30 min) 12 hr after dosing (±30 min)\nCycle 0 Day 2 24 hr after dosing on Cycle 0 Day 1 24 hr after dosing on Cycle 0 Day 1\nCycle 0 Day 3 48 hr after dosing on Cycle 0 Day 1 –\n(±2 hr), before dosing on Cycle 1\nCycle 1 Day 8 5 min before dosing (−30 min) –\nCycle 2 Day 1 5 min before dosing (−30 min) 5 min before dosing (−30 min)\n12 hr after first dose (±60 min), 12 hr after first dose (±60 min),\nbefore second dose before second dose\nCycle 4 Day 1 5 min before dosing (−30 min) –\nCycle 9 Day 1 5 min before dosing (−30 min) –\nLast observation Any time –\n12 hr after dosing (±60 min) 12 hr after dosing (±60 min)\n(±2 hr), before dosing on Cycle 1, Day"}, "advanced solid tumours": {"test_system": "advanced solid tumours", "assay": "Efficacy by RECIST version 1.1 (best overall response, disease control, PFS)", "settings": "Stage 1", "method": "The efficacy outcomes were the response rate, disease control rate, progression-free survival (PFS) and duration of response. Efficacy outcomes were assessed using the Response Evaluation Criteria in Solid Tumours (RECIST) version 1.1.\nEfficacy endpoints were analysed in the full analysis set, which consisted of patients who received ≥1 dose of the study drug and underwent ≥1 post-baseline efficacy assessment."}}, "note": "“Also recorded” adds a separate entry of the source.", "data": [{"smiles": "O[C@H](C[C@H]1c2c(F)cccc2-c2cncn21)[C@H]1CC[C@H](O)CC1", "note": "[Navoximod]", "values": [{"measurement": "Maximum tolerated dose (MTD)", "setting": "[1]; Stage 1, monotherapy up to 1000 mg BID", "value": "not reached"}, {"measurement": "Any TRAE, All grades", "setting": "[1]; human, in vivo", "value": 6, "unit": "n"}, {"measurement": "Any TRAE, Grade ≥ 3", "setting": "[1]; human, in vivo", "value": 2, "unit": "n"}, {"measurement": "Chromaturia, All grades", "setting": "[1]; human, in vivo", "value": 5, "unit": "n"}, {"measurement": "Chromaturia, Grade ≥ 3", "setting": "[1]; human, in vivo", "value": 0, "unit": "n"}, {"measurement": "Grade 4 or 5 TRAEs", "setting": "[1]; human, in vivo", "value": "No grade 4 or 5 TRAEs were observed"}, {"measurement": "Incidence of chromaturia", "setting": "[1]; human, in vivo", "value": 55, "unit": "%"}, {"measurement": "Maculopapular rash, All grades", "setting": "[1]; human, in vivo", "value": 2, "unit": "n"}, {"measurement": "Maculopapular rash, Grade ≥ 3", "setting": "[1]; human, in vivo", "value": 1, "unit": "n"}, {"measurement": "Patients with Grade ≥ 3 TRAEs", "setting": "[1]; human, in vivo", "value": 20, "unit": "%"}, {"measurement": "Patients with TRAE chromaturia, any grade", "setting": "[1]; human, in vivo", "value": 50, "unit": "%"}, {"measurement": "Patients with TRAE maculopapular rash, any grade", "setting": "[1]; human, in vivo", "value": 20, "unit": "%"}, {"measurement": "Patients with TRAEs", "setting": "[1]; human, in vivo", "value": 60, "unit": "%"}, {"measurement": "Symptomatic grade 3 or higher TRAE maculopapular rash", "setting": "[1]; human, in vivo", "value": 5, "unit": "%"}, {"measurement": "Reduction of plasma and tissue kynurenine concentrations", "setting": "IDO1", "value": "approximately 50%"}, {"measurement": "MTD", "setting": "[2]; monotherapy 100-800 mg twice daily, 22 patients", "value": "not reached"}, {"measurement": "CRs or PRs", "setting": "[2]; monotherapy", "value": "no CRs or PRs were observed"}, {"measurement": "Half-life", "setting": "[2]; monotherapy", "value": "approximately 12 h"}, {"measurement": "Linearity of pharmacokinetics", "setting": "[2]; monotherapy", "value": "linear pharmacokinetics"}, {"measurement": "Time to peak plasma concentration", "setting": "[2]; monotherapy", "value": "approximately 60 min"}, {"measurement": "Decrease of plasma kynurenine levels", "setting": "[2]; navoximod 400 mg, 600 mg or 800 mg, 2–4 h after administration", "value": "25–30%"}, {"measurement": "Patients with Grade 3 or higher AEs", "setting": "[2]; two patients of 22, lower gastrointestinal haemorrhage, diverticulitis", "value": 9, "unit": "%"}, {"measurement": "Dose-corrected navoximod exposure by UGT1A1 genotype", "setting": "[3]; patients with UGT1A1 −/*28", "value": "higher"}, {"measurement": "Dose-corrected navoximod exposure by UGT1A1 genotype", "setting": "[3]; patients with UGT1A1 −/−, −/*6 and *6/*6", "value": "similar"}, {"measurement": "Dose proportionality of AUC and Cmax", "setting": "[3]; single oral dose", "value": "dose-proportional"}, {"measurement": "Dose proportionality of AUC and Cmax", "setting": "[3]; single oral dose, listed as navoximod", "value": "linear pharmacokinetics; also recorded: changed dose-proportionally"}, {"measurement": "Time at which mean plasma concentration peaked", "setting": "[3]; single oral dose, Stage 1 or Stage 2", "value": "15 to 60", "unit": "min"}, {"measurement": "Complete response (CR) and partial response (PR)", "setting": "advanced solid tumours", "value": "not observed"}, {"measurement": "PFS, range", "setting": "advanced solid tumours", "value": "9 to 259", "unit": "days"}, {"measurement": "Best overall response progressive disease (PD)", "setting": "advanced solid tumours; all doses, n = 10", "value": "five"}, {"measurement": "Patients with stable disease", "setting": "advanced solid tumours; all doses, n = 10", "value": 50, "unit": "%"}, {"measurement": "Best overall response progressive disease (PD)", "setting": "advanced solid tumours; navoximod 400 mg", "value": 3, "unit": "n"}, {"measurement": "Best overall response progressive disease (PD)", "setting": "advanced solid tumours; navoximod 600 mg", "value": 2, "unit": "n"}]}]}
